Measured values: patent publication US20120245137A1 (Zalicus Pharmaceuticals Ltd., priority 2009, published 2012)
pIC50: −log10 of the molar value. Read-outs that look alike come from different tables or passages of the source.

Legend:
Assay type in all cases: cell-based
Human Cav 2.2 channels = Human Cav 2.2 channels (Homo sapiens, UniProt Q00975); test: Fluorescent assay for CaV2.2 channels using potassium depolarization (VIPR/FLIPR); conditions: FLIPR data; for CAv2.2 IC50 Ratio closed/inact.: ratio closed/inactivated IC50
Chain of Human Cav 2.2 channels (Q00975 whole entry): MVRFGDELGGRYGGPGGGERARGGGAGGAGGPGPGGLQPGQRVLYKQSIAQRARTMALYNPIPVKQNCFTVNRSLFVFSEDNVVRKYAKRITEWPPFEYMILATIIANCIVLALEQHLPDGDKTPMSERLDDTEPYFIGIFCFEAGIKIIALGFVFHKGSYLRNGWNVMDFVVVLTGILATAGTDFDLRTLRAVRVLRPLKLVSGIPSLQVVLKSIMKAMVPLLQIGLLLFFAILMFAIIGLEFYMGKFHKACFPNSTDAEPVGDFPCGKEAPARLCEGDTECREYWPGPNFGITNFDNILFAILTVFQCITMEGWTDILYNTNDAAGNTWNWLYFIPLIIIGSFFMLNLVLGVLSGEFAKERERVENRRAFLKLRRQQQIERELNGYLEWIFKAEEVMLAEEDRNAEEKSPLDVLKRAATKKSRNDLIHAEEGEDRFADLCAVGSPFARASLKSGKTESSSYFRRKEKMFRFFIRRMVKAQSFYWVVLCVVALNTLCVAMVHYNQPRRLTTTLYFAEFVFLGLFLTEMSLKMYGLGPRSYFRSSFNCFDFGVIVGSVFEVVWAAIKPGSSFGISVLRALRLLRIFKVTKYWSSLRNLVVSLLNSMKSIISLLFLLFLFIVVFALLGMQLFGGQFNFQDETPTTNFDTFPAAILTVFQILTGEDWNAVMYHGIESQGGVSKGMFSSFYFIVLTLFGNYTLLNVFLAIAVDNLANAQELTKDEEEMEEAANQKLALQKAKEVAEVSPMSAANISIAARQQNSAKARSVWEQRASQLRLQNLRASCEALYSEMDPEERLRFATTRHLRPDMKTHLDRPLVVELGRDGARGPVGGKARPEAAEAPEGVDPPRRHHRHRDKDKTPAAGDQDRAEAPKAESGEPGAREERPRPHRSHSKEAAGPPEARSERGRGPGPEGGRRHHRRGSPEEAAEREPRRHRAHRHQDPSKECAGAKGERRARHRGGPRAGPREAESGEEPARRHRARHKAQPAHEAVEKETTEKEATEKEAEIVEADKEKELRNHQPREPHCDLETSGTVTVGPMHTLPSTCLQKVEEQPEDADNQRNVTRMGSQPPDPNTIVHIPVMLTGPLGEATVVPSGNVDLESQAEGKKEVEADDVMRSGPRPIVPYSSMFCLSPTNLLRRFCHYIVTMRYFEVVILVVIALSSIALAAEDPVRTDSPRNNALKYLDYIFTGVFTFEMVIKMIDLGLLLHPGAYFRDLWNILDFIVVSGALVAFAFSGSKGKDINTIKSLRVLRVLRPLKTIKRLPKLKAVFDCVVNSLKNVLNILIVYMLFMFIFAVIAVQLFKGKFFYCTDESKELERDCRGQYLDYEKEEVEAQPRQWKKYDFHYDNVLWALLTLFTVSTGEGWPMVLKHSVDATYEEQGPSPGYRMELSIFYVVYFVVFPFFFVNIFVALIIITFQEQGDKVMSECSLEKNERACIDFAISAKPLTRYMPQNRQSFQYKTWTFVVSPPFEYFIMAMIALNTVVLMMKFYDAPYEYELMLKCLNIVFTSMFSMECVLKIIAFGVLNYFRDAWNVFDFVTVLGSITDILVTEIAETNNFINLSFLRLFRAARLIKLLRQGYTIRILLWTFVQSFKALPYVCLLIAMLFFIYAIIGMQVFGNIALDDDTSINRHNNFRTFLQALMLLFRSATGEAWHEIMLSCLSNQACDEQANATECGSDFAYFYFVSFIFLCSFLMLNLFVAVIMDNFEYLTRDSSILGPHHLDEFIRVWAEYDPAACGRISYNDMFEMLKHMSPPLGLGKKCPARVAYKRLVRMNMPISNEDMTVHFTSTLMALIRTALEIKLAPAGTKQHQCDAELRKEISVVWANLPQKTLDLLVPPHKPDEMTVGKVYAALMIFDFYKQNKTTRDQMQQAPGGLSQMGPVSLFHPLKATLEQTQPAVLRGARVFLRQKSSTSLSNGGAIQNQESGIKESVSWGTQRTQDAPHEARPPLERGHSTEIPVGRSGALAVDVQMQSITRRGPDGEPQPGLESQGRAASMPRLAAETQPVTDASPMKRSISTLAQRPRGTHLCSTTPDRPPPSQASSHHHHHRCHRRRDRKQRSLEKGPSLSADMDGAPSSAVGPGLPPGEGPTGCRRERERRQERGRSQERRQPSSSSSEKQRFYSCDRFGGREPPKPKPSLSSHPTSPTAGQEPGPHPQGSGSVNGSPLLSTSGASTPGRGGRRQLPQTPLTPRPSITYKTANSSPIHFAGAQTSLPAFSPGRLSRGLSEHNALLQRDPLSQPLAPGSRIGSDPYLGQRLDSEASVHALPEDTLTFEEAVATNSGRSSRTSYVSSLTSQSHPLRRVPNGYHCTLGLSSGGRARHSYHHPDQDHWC
Chain of Human Cav 2.2 channels (P54289 25-1103 partner): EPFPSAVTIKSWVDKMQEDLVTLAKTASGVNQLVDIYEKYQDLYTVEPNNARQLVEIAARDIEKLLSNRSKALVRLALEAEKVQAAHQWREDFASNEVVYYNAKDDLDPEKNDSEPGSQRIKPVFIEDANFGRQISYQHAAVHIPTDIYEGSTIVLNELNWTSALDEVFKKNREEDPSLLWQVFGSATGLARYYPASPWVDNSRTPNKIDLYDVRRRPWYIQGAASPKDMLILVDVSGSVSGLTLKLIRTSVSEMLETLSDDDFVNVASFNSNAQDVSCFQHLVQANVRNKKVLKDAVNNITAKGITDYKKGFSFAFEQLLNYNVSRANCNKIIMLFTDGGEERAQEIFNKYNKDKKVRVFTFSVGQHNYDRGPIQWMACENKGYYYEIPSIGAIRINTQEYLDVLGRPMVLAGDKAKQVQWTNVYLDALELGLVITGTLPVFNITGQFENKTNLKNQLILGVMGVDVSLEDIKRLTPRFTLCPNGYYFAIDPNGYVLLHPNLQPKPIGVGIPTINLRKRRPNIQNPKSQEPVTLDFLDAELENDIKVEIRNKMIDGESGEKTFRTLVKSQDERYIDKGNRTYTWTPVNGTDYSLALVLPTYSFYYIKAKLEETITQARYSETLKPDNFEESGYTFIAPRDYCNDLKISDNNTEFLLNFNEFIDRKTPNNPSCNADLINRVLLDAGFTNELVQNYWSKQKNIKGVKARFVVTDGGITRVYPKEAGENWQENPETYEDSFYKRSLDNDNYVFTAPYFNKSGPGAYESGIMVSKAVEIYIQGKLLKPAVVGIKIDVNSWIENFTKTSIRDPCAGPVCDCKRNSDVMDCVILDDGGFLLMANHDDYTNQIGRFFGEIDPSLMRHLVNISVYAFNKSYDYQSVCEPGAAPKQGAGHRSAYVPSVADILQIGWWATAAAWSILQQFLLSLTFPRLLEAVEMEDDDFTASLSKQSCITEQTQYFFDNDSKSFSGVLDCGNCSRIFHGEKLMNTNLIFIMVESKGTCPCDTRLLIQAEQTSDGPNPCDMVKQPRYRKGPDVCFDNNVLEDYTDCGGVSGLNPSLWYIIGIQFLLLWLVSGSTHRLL
Chain of Human Cav 2.2 channels (P54284 whole entry partner): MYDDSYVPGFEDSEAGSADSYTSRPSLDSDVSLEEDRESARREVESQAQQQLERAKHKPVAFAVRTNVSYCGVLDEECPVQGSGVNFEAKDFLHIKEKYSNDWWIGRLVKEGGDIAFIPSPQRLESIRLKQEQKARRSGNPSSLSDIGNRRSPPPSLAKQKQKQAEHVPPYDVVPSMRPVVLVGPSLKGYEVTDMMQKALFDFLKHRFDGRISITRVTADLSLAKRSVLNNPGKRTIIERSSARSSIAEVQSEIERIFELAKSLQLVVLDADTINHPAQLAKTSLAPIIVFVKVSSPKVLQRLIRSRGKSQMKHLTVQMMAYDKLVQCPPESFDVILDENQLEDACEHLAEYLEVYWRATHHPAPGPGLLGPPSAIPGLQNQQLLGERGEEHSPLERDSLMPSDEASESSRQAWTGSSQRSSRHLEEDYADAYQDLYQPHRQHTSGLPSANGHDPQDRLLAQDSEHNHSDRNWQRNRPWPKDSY
Source text: Human Cav 2.2 channels were stably expressed in HEK293 cells along with alpha2-delta and beta subunits of voltage-gated calcium channels. An inwardly rectifying potassium channel (Kir2.3) was also expressed in these cells to allow more precise control of the cell membrane potential by extracellular potassium concentration. At low bath potassium concentration, the membrane potential is relatively negative, and is depolarized as the bath potassium concentration is raised. In this way, the bath potassium concentration can be used to regulate the voltage-dependent conformations of the channels. […] After the incubation period, Cav2.2 channel opening is triggered by addition of higher concentration of potassium (70 mM final concentration) to further depolarize the cell. The degree of state-dependent block can be estimated from the inhibitory potency of compounds after incubation in different potassium concentrations.
Calcium influx through Cav 2.2 channels is determined using a calcium sensitive fluorescent dye in combination with a fluorescent plate reader. Fluorescent changes were measured with either a VIPR (Aurora Instruments) or FLIPR (Molecular Devices) plate reader.
1. Seed cells in Poly-D-Lysine Coated 96 or 384-well plate and keep in a 3rC-IO % C02 incubator overnight.
2. Remove media, wash cells with 0.2 mL (96-well plate) or 0.05 mL (384-well plate) Dulbecco's Phosphate Buffered Saline (D-PBS) with calcium & magnesium (Invitrogen; 14040).
3. Add 0.1 mL (96-well plate) or 0.05 mL (384-well plate) of 4˜M fluor-4 (Molecular Probes; F-14202) and 0.02% Pluronic acid (Molecular Probes; P-3(00) prepared in D-PBS with calcium & magnesium (Invitrogen; 14040) supplemented with 10 mM Glucose & 10 mM HepeslNaOH; pH 7.4.
4. Incubate in the dark at 25° C. for 60-70 min.
5. Remove dye, wash cells with 0.1 mL (96-well plate) or 0.06 mL (384-well plate) of 4, 12, 25, or 30 mM Potassium Pre-polarization Buffer (PPB).
6. Add 0.1 mL (96-well plate) or 0.03 mL (384-well plate) of 4, 12, 25, 30 mM PPB with or without test compound.
7. Incubate in the dark at 25° C. for 30 min
8. Read cell plate on VIPR instrument, Excitation=480 nm, Emission=535 nm.
9. With VIPR continuously reading, add 0.1 mL (96-well plate) or 0.03 mL (384-well plate) of Depolarization Buffer (DB), which is 2× the final assay concentration, to the cell plate.

CAv1.2 = CAv1.2 (Homo sapiens, UniProt Q13936); test: FLIPR data, CAv1.2 channel blocking (Table 6)
T-type calcium channel = T-type calcium channel (Homo sapiens, UniProt O95180); test: T-type channel blocking, FLIPR data (Table 6); conditions: for CAv3.2 IC50 Ratio closed/inact.: CAv3.2, ratio closed/inactivated IC50
Source text: Another method, high-throughput spectrophotometric assay, utilizes loading of the cell lines with a fluorescent dye sensitive to intracellular calcium concentration and subsequent examination of the effects of compounds on the ability of depolarization by potassium chloride or other means to alter intracellular calcium levels.

[1] = closed state, read-out: CAv2.2 IC50 Closed
[2] = inactivated state, read-out: CAv2.2 IC50 Inact.
[3] = inactivated state, read-out: CAv1.2 IC50 Inact.
[4] = CAv3.2, closed state, read-out: CAv3.2 IC50 Closed
[5] = CAv3.2, inactivated state, read-out: CAv3.2 IC50 Inact.
[6] = closed state, read-out: CAv1.2 IC50 Closed

Compound | pIC50 (Human Cav 2.2 channels; [1]) | pIC50 (Human Cav 2.2 channels; [2]) | CAv2.2 IC50 Ratio closed/inact. (Human Cav 2.2 channels) | pIC50 (T-type calcium channel; [4]) | pIC50 (T-type calcium channel; [5]) | CAv3.2 IC50 Ratio closed/inact. (T-type calcium channel) | pIC50 (CAv1.2; [3]) | pIC50 (CAv1.2; [6]) | CAv1.2 IC50 Ratio closed/inact. (CAv1.2; ratio closed/inactivated IC50)
CC(C)([C@H]1C[C@@H](NC(=O)c2ccc(C(F)(F)F)cc2S(C)(=O)=O)C1)S(=O)(=O)c1cc(F)cc(C(F)(F)F)c1 [Compound 585] | 5.00 | 5.97 | 9.3 | ≤ 5.00 | 5.00 | 1 | ≤ 5.00 | – | –
CC(C)([C@H]1C[C@@H](NC(=O)c2ncc(C(F)(F)F)cc2S(C)(=O)=O)C1)S(=O)(=O)c1cccc(OC(F)(F)F)c1 [Compound 644] | 5.00 | 6.05 | 11.1 | ≤ 5.00 | 5.00 | 1 | ≤ 5.00 | – | –
CC(C)([C@H]1C[C@H](NC(=O)CC2(N)CCCCC2)C1)S(=O)(=O)c1cc(F)cc(C(F)(F)F)c1 [Compound 654] | 5.07 | 5.84 | 5.9 | – | 5.00 | – | ≤ 5.00 | ≤ 5.00 | –
CNC1(CC(=O)N[C@H]2C[C@H](C(C)(C)S(=O)(=O)c3cc(F)cc(C(F)(F)F)c3)C2)CCCCC1 [Compound 659] | 5.01 | 5.71 | 5 | – | 5.00 | – | ≤ 5.00 | ≤ 5.00 | –
O=C(NC[C@H]1C[C@H](S(=O)(=O)c2cccc(OC(F)(F)F)c2)C1)c1ccc(OCC(F)(F)F)nc1 [Compound 699] | 5.10 | – | 3.1 | ≤ 5.00 | – | 1 | – | ≤ 5.00 | –
N[C@H]1CCCCC1C(=O)NC[C@H]1C[C@H](S(=O)(=O)c2cccc(OC(F)(F)F)c2)C1 (stereo partly shown) [Compound 709] | 5.12 | 5.63 | 3.2 | ≤ 5.00 | 5.00 | 1 | – | ≤ 5.00 | –
CC(C)([C@H]1C[C@@H](NC(=O)c2ccc(S(C)(=O)=O)cc2Cl)C1)S(=O)(=O)c1cccc(C(F)(F)F)c1 [Compound 577] | 5.00 | 6.19 | 15.6 | – | – | – | ≤ 5.00 | ≤ 5.00 | –
CS(=O)(=O)c1cc(Cl)ccc1C(=O)NC[C@H]1C[C@H](S(=O)(=O)c2cc(F)cc(C(F)(F)F)c2)C1 [Compound 715] | 5.00 | 5.86 | 7.2 | ≤ 5.00 | 5.12 | 1.3 | ≤ 5.00 | ≤ 5.00 | –
CNC1(CC(=O)N[C@H]2C[C@@H](C(C)(C)S(=O)(=O)c3cccc(OC(F)(F)F)c3)C2)CCCCC1 [Compound 661] | 5.10 | 5.82 | 5.2 | – | 5.00 | – | ≤ 5.00 | ≤ 5.00 | –
CC(C)([C@H]1C[C@H](NC(=O)c2ccc(C(F)(F)F)cc2S(C)(=O)=O)C1)S(=O)(=O)c1cc(F)cc(C(F)(F)F)c1 [Compound 592] | 5.00 | 6.34 | 21.7 | ≤ 5.00 | 5.00 | 1 | ≤ 5.00 | ≤ 5.00 | –
O=C(NC[C@H]1C[C@H](S(=O)(=O)c2cccc(OC(F)(F)F)c2)C1)c1ccnc(C(F)(F)F)n1 [Compound 697] | 5.42 | 6.15 | 5.3 | ≤ 5.00 | 5.05 | 1.1 | ≤ 5.00 | ≤ 5.00 | –
CNC1(CC(=O)N[C@H]2C[C@@H](C(C)(C)S(=O)(=O)c3cccc(C(F)(F)F)c3)C2)CCCCC1 [Compound 657] | 5.03 | 5.67 | 4.3 | – | – | – | – | ≤ 5.00 | –

The next lines start with results.

pIC50 (Human Cav 2.2 channels; [1]) | pIC50 (Human Cav 2.2 channels; [2]) | CAv2.2 IC50 Ratio closed/inact. (Human Cav 2.2 channels) | pIC50 (T-type calcium channel; [4]) | pIC50 (T-type calcium channel; [5]) | CAv3.2 IC50 Ratio closed/inact. (T-type calcium channel) | Compound | pIC50 (CAv1.2; [3]) | pIC50 (CAv1.2; [6]) | CAv1.2 IC50 Ratio closed/inact. (CAv1.2; ratio closed/inactivated IC50)
5.25 | 5.90 | 4.5 | – | 5.00 | – | CNC1(CC(=O)N[C@H]2C[C@H](C(C)(C)S(=O)(=O)c3cccc(OC(F)(F)F)c3)C2)CCCCC1 [Compound 662] | ≤ 5.00 | ≤ 5.00 | –
5.12 | 5.52 | 2.5 | – | 5.00 | – | NC1(CC(=O)NC[C@H]2C[C@H](S(=O)(=O)c3cc(F)cc(C(F)(F)F)c3)C2)CCCCC1 [Compound 708] | ≤ 5.00 | ≤ 5.00 | –
5.00 | 5.58 | 3.8 | ≤ 5.00 | 5.00 | 1 | CNC1(CC(=O)N[C@H]2C[C@@H](C(C)(C)S(=O)(=O)c3cc(F)cc(C(F)(F)F)c3)C2)CCCCC1 [Compound 658] | – | ≤ 5.00 | –
5.26 | 6.06 | 6.3 | – | 5.00 | – | CC(C)([C@H]1C[C@H](NC(=O)CC2(N)CCCCC2)C1)S(=O)(=O)c1cccc(OC(F)(F)F)c1 [Compound 656] | ≤ 5.00 | ≤ 5.00 | –
5.00 | 5.95 | 8.9 | – | 5.00 | – | CC(C)([C@H]1C[C@@H](NC(=O)c2ncc(C(F)(F)F)cn2)C1)S(=O)(=O)c1cccc(C(F)(F)F)c1 [Compound 583] | – | ≤ 5.00 | –
5.54 | 6.00 | 2.9 | ≤ 5.00 | 5.00 | 1 | CC(C)(C[C@H]1C[C@@H](NC(=O)CC2(N)CCCCC2)C1)S(=O)(=O)c1cccc(C(F)(F)F)c1 [Compound 739] | ≤ 5.00 | 5.05 | 0.9
5.00 | 5.22 | 1.7 | – | 5.00 | – | N[C@H]1CCCC[C@@H]1C(=O)NC[C@H]1C[C@H](S(=O)(=O)c2cc(F)cc(C(F)(F)F)c2)C1 [Compound 712] | ≤ 5.00 | ≤ 5.00 | –
5.44 | 5.81 | 2.3 | – | 5.00 | – | CC(C)(C[C@H]1C[C@H](NC(=O)[C@@H]2CCCC[C@H]2N)C1)S(=O)(=O)c1cccc(C(F)(F)F)c1 [Compound 728] | – | ≤ 5.00 | –
5.00 | 5.36 | 2.3 | ≤ 5.00 | – | – | Cc1nc(S(=O)(=O)N[C@H]2C[C@@H](C(C)(C)S(=O)(=O)c3cc(F)cc(C(F)(F)F)c3)C2)cn1C [Compound 604] | ≤ 5.00 | ≤ 5.00 | –
5.56 | 6.05 | 3.1 | ≤ 5.00 | 5.00 | 1 | CC(C)(C[C@H]1C[C@H](NC(=O)CC2(N)CCCCC2)C1)S(=O)(=O)c1cccc(C(F)(F)F)c1 [Compound 726] | ≤ 5.00 | ≤ 5.00 | –
5.23 | 6.02 | 6.2 | ≤ 5.00 | 5.49 | 3.1 | CC(C)([C@H]1C[C@@H](NC(=O)c2ccnc(C(F)(F)F)n2)C1)S(=O)(=O)c1cc(F)cc(C(F)(F)F)c1 [Compound 588] | ≤ 5.00 | ≤ 5.00 | –
5.00 | 5.66 | 4.5 | – | 5.00 | – | CS(=O)(=O)c1cc(C(F)(F)F)cnc1C(=O)NC[C@H]1C[C@H](S(=O)(=O)c2cc(F)cc(C(F)(F)F)c2)C1 [Compound 701] | ≤ 5.00 | – | –
5.19 | 5.94 | 5.6 | – | 5.00 | – | CC(C)([C@H]1C[C@@H](NC(=O)CC2(N)CCCCC2)C1)S(=O)(=O)c1cccc(OC(F)(F)F)c1 [Compound 655] | ≤ 5.00 | ≤ 5.00 | –
